Assay results published in patent US20090054403A1, “Treatment of Post-Traumatic Stress Disorder” (priority 2007, published 2009).

Columns and labels:
body core temperature = assay: Body core temperature during 10 day chronic dosing; details: b.i.d. oral: nepicastat 5, 15, 50 mg/kg; SKF-102698 50 mg/kg; clonidine 20 ug/kg; d-amphetamine 2 mg/kg; days 1, 5, 10
Procedure: (§1) The effects of chronic dosing of nepicastat were examined. Between three and thirteen days prior to the first dosing day the rats were placed inside the startle apparatus and after a five minute acclimation period they were presented with a 118 dB noise burst on average once a minute (a variable inter-trial interval ranging between 30 and 90 seconds will be used) for 20 minutes. The startle responses were measured and a mean for the last twenty startle response was calculated for each rat.
Rat body core temperatures were obtained by inserting the rectal probe 2 cm into the colon of each rat. Each rat's body core temperature was measured three times and the average of the three reading was calculated. Body core temperature readings were obtained immediately prior to the ten day chronic dosing schedule (to obtain a baseline), and three and half hour after the morning daily dose of nepicastat, and SKF-102698, and 15 minutes prior to the daily administration of clonidine and d-amphetamine, on dosing days one, five and ten. […] Both clonidine (an alpha2 agonist), and d-amphetamine (a dopamine releaser) were used as the positive controls for this assay.
An overall one-way ANOVA with a main effect for treatment was performed at each time on the change from baseline for each animal. Subsequent t-tests were performed for each comparison of interest.

pre-pulse inhibition = assay: Pre-pulse inhibition of acoustic startle on day ten of chronic dosing
Procedure: as §1
(§2) Acoustic startle reactivity (a series of muscle contractions elicited by an intense burst of noise with a rapid onset), and pre-pulse inhibition (sensorimotor gating measured by analyzing any decrease in startle reactivity which occurs when a startling stimulus is immediately preceded by a non startling stimulus) were both measured in eight SR-Lab (San Diego Instruments, San Diego, Calif.) test stations. The rats were placed individually in a Plexiglas cylinder (10 cm diameter) which was housed in a ventilated sound-attenuating enclosure. Acoustic noise bursts (a broad band noise with a rise time and fall time of 1 msec) were presented via a speaker mounted 30 cm above the animal. Also, these speakers produced a 68 dB level of background noise throughout all test sessions. […] A decibel meter was used to calibrate the speakers in each of the eight test station to ±1% of the mean. Additionally, a SR-Lab calibrating instrument was used to calibrate each of the eight startle detection apparatuses to ±2% of the mean. Startle reactivity and pre-pulse inhibition tests were run concurrently immediately alter the motor activity test (about 4 hours and 40 minutes after the morning daily injection of nepicastat, and SKF-102698, and 10 minutes after a supplemental administration of clonidine and d-amphetamine on dosing day ten).

[1] = Change of body weight during 10 day chronic dosing; details: 10 days b.i.d. oral dosing
Procedure: as §1
The change from pre-dose in body weights was calculated for each animal for the analysis. A repeated measures two-way ANOVA was used to test for the overall effects of treatment, time and treatment by time interaction. One-way ANOVAS were then performed to test the treatment effect at each day.

[2] = test system: spontaneous motor activity; assay: Spontaneous motor activity on day ten of chronic dosing; details: day ten of b.i.d. oral dosing, 1 hour
Procedure: as §1
The animals were tested in an enclosed room with a white noise generator running. Motor activity tests were conducted immediately after the body core temperature reading taken on dosing day ten (about 3 hours and 35 minutes after the morning daily dose of nepicastat, and SKF-102698, and 20 minutes prior to the daily administration of clonidine and d-amphetamine on dosing day ten). Motor activity tests were run for one hour. A diagnostic program was run on each of the motor activity chambers prior to each test session to assure that the photo beams and light sensors were operating properly. […] D-amphetamine was used as the positive control for this assay.
Each rats spontaneous locomotion was obtained by calculating the total number of photobeams that the subject broke during the testing session.
Spontaneous motor activity was measured for each animal every 15 min for 1 hour. Each time block (every 15 min) was analyzed separately. Kruskal-Wallis test (nonparametric technique) was performed to test for the difference between treatment groups. If the overall significant difference […], Bonferroni's adjustment for multiple comparisons is then made.

locomotor activity = assay: Locomotor activity after acute dosing; format: in vivo, Sprague Dawley rats; details: 4 h; nepicastat 3-100 mg/kg, SKF-102698 100 mg/kg, clonidine 40 μg/kg
Source text: Changes in these behaviors may therefore reflect activity of these compounds in the central nervous system. […] Rats were housed under a normal light/dark cycle with lights on between 0900 Hrs. and 2100 Hrs. Animals were housed in pairs in standard metal wire cages, and food and water were allowed ad libitum. The locomotor activity boxes consisted of a Plexiglas® box measuring 18″×18″ by 12″ high. Surrounding the Plexiglas® boxes were Omnitech Digiscan Monitors (model # RXXCM 16) which consisted of a one inch ban of photobeams and photosensors numbering 32 per box. The number of photobeam breaks were analyzed by an Omnitech Digiscan Analyzer (model # DCM-8). […] Prior to drug administration, each of seventy-two rats was placed in the startle apparatus, and after a 5 minute adaption period they were presented with an acoustic noise burst every 20 seconds for 15 minutes (45 startles total). The average startle was calculated for each rat by taking the mean of startle number 11 through 45 (the first ten startles will be disregarded). Sixty-four of these rats were then placed in one of eight treatment groups such that each group had similar mean startle values. The eight treatment groups were as follows: […] Each day after this testing procedure, eight rats (one rat from each of the eight treatment groups) was injected with their assigned drug treatment and immediately placed individually in a motor activity box. The rats motor activity was monitored for four hours. Next, the rats were placed in a transfer cage for fifteen minutes. At the beginning of this fifteen minutes the rat that has been assigned the clonidine treatment will receive another injection of 40 μg/kg. […] To evaluate motor activity, horizontal activity (number of photobeams broken), number of movements, and rest time were measured. Each parameter was analyzed separately. At each time interval (or called sample), a two-way analysis of variance (ANOVA) was performed using the ranked data (nonparametric technique) to test for the treatment effect blocked by day.

[3] = test system: acoustic startle reactivity; assay: Acoustic startle reactivity on day ten of chronic dosing; details: rat, in vivo, po
Procedure: as §1, §2

[4] = test system: acoustic startle reactivity; assay: Acoustic startle reactivity after acute dosing; format: in vivo, Sprague Dawley rats; details: nepicastat 3-100 mg/kg, SKF-102698 100 mg/kg, clonidine 40 μg/kg
Procedure: A piezoelectric accelerometer transforms the subject's movement into an arbitrary voltage on a scale of 0 to 4095. Prior to drug administration, each of seventy-two rats was placed in the startle apparatus, and after a 5 minute adaption period they were presented with an acoustic noise burst every 20 seconds for 15 minutes (45 startles total). The average startle was calculated for each rat by taking the mean of startle number 11 through 45 (the first ten startles will be disregarded). Sixty-four of these rats were then placed in one of eight treatment groups such that each group had similar mean startle values. The eight treatment groups were as follows: […] Each day after this testing procedure, eight rats (one rat from each of the eight treatment groups) was injected with their assigned drug treatment and immediately placed individually in a motor activity box. The rats motor activity was monitored for four hours. Next, the rats were placed in a transfer cage for fifteen minutes. […] To evaluate startle reactivity, for the 200 milliseconds immediately succeeding each startle the average force exerted by each startled rat over the entire 200 milliseconds, and the maximum force, were measured. […] The startle responses were analyzed using analysis of covariance. […] Therefore, the startle responses were analyzed by time. […]

Structure (SMILES) | body core temperature (body core temperature) | percent prepulse inhibition vs vehicle (pre-pulse inhibition; day ten of b.i.d. oral dosing) | change in body weight from pre-dose vs vehicle [1] | spontaneous motor (locomotor) activity vs vehicle [2] | horizontal activity vs vehicle (locomotor activity) | number of movements vs vehicle (locomotor activity) | rest time vs vehicle (locomotor activity) | percent prepulse inhibition vs vehicle (pre-pulse inhibition; rat, in vivo, po) | acoustic startle reactivity vs vehicle [3] | maximum and average startle response vs vehicle [4]
C[C@H](N)Cc1ccccc1 [d-amphetamine] | significantly increasing body core temperature on day one | Neither d-amphetamine nor SKF 102698 was significantly different | significantly smaller change in body weight | significantly higher locomotor activity | – | – | – | – | – | –
Clc1cccc(Cl)c1N=C1NCCN1 [clonidine] | – | – | – | – | significantly more horizontal activities at 2 and 2.5 hours | significantly more movements at 2 hours | significantly less rest time at 2 hours | just significantly higher percent prepulse inhibition | significantly reduced | statistically significantly lower
